From PMC6130489, “Caffeic acid methyl and ethyl esters exert potential antidiabetic effects on glucose and lipid metabolism in cultured murine insulin-sensitive cells through mechanisms implicating activation of AMPK” (Pharmaceutical Biology, 2017)

What was measured:
AMPK = assay: Western immunoblot phospho-AMPK in L6 myotubes; type: cell-based, rat; settings: AICAR 30 min (2 mM per Figure 1 legend, 1 mM per methods)
Protocol: L6 cells myotubes, H4IIE cells and 3T3-L1 adipocytes were treated with either CAME, CAEE (50 μM each) or vehicle (DMSO) for 18 h. Insulin (100 nM) or aminoimidazole carboxamide ribonucleotide (AICAR; 1 mM) were added to some vehicle-treated wells 30 min prior to the end of the treatment and served as the positives controls. Protein content was assayed by the bicinchoninic acid method (Thermo Scientific Pierce Protein Research, Rockford, IL) standardized to bovine serum albumin. Western immunoblotting was performed as described elsewhere (Eid et al. [2010]). Membranes were incubated overnight with phospho-AMPK, phospho-Akt, GLUT4, GLUT1 and β-actin antibodies (1:1000 dilution, Cell Signalling Technology, Danvers, MA), or with PPAR-γ, SREBP-1 (1:200, Santa Cruze Biotechnology, Santa Cruz, CA), followed by incubation with HRP-coupled secondary antibody (1:10,000) for 1 h. Immunoreactive bands were visualized by enhanced chemiluminescence and quantified by the Scion Image program (Scion Corporation, Frederick, MD). Experiments were repeated on 3 different passages of cells, each passage containing all conditions in parallel.
Figure 1. (A) CAME and CAEE increase ^3H-deoxyglucose uptake in L6 GLUT4myc myotubes. Cells were treated with 50 μM of either CAME, CAEE, or with vehicle (0.1% DMSO) for 18 h. 100 nM insulin served as the positive control and was applied for the last 15 min of the treatment in vehicle-treated cells. Glucose uptake was performed as described in Materials and Methods section. […] Cells were treated as previously described, cell surface GLUT4myc was detected by an enzyme-linked colorimetric assay. […] Results represent the means ± SEM of three independent experiments, and 3-4 cells were analyzed for each condition per experiment. *Indicates a significant (p ≤ 0.05) difference, **(p < 0.01) from the vehicle control group as assessed by ANOVA. […] Data are expressed as (D) phospho-AMPK/β-actin, (E) GLUT4/β-actin and (F) GLUT1/β-actin and are given as mean ± SEM from 3 experiments. *p < 0.05 indicates a significant difference, **(p < 0.01) from the vehicle control group.

L6 GLUT4myc myotubes = assay: 3H-Deoxyglucose uptake assay; type: cell-based, rat; settings: insulin 100 nM, 15 min
Protocol: Measurement of glucose uptake was performed as previously described (Eid et al. [2010]) using [^3H]-2-deoxyglucose (TRK-383, Amersham Biosciences, Buckinghamshire, UK). Nonspecific uptake was measured in the presence of cytochalasin B (10 μM) and was subtracted from all values.
(§1) Figure 1. (A) CAME and CAEE increase ^3H-deoxyglucose uptake in L6 GLUT4myc myotubes. Cells were treated with 50 μM of either CAME, CAEE, or with vehicle (0.1% DMSO) for 18 h. 100 nM insulin served as the positive control and was applied for the last 15 min of the treatment in vehicle-treated cells. Glucose uptake was performed as described in Materials and Methods section. (B) CAME and CAEE stimulate GLUT4 translocation in L6 GLUT4myc myotubes. Cells were treated as previously described, cell surface GLUT4myc was detected by an enzyme-linked colorimetric assay. By the end of the treatment, L6- GLUT4myc cells were labeled with anti-c-myc antibody as described in Materials and Methods section. Results represent the means ± SEM of three independent experiments, and 3-4 cells were analyzed for each condition per experiment. *Indicates a significant (p ≤ 0.05) difference, **(p < 0.01) from the vehicle control group as assessed by ANOVA. […] L6 myotubes treated with CAME or CAEE (50 μM each), DMSO (0.1%) for 18 h. Insulin (100 nM) and AICAR (2 mM) both applied for 30 min and served as positive controls. Immunoblots were probed with anti phospho-AMPK (Thr 172), anti-GLUT4, anti-GLUT1 and anti-phospho-Akt (Ser 473) antibodies as described in Materials and Methods section. Anti-β-actin antibody was used as a loading control. Representative blots are shown in panel C. Data are expressed as (D) phospho-AMPK/β-actin, (E) GLUT4/β-actin and (F) GLUT1/β-actin and are given as mean ± SEM from 3 experiments. *p < 0.05 indicates a significant difference, **(p < 0.01) from the vehicle control group.

G6Pase = target: T1, G6Pase (Rattus norvegicus, UniProt P43428); assay: Enzymatic activity of G6Pase in H4IIE cells; type: cell-based; settings: insulin 100 nM, same treatment period, relative to DMSO
T1 sequence (P43428 1-357): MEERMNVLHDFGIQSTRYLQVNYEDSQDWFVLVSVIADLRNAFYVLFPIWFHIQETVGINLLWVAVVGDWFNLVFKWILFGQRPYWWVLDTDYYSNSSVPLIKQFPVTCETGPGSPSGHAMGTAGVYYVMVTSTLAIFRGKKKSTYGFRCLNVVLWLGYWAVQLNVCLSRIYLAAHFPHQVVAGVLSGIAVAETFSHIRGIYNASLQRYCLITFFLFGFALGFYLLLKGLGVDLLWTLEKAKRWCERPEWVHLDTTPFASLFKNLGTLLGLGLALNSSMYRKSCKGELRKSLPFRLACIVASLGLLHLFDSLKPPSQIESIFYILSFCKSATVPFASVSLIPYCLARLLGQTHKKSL
Protocol: At 90% confluence, H4-IIE cells were treated with 12.5, 25, 50 and 100 μM of either CAME or CAEE in serum free medium. Vehicle (0.1% DMSO)-treated and 100 nM insulin-treated cells served as the negative and positive control respectively. The activity of G6Pase was assessed by measuring the rate of glucose production in the presence of a non-limiting amount of glucose-6-phosphate (G6P) as described elsewhere (Nachar et al. [2013]). Total glucose production was measured using a commercial glucose assay kit (AutoKit Glucose; Wako Diagnostics, Richmond, VA). Protein content was measured using bicinchoninic acid (BCA) assay (Simpson [2008]) and G6Pase activity was expressed in relation to protein content.
Figure 2. CAME and CAEE inhibit G6Pase by mechanisms involving activation of AMPK. (A) H4IIE hepatocytes were treated for 16 h with several concentrations (12.5, 25, 50 and100 μM) of either CAME or CAEE and G6Pase activity was determined colorimetrically using a commercial glucose assay kit as described under Materials and Methods. Data are expressed relative to vehicle control (0.1% DMSO, 0% inhibition). Insulin (100 nM) applied for similar treatment period served as the positive control. (B and C) Cells were treated with the optimal nontoxic concentration of either CAME, CAEE (50 μM each), or DMSO (0.1%) for 18 h, insulin (100 nM), AICAR (1 mM) applied for 30 min served as the positive controls. (B) The upper blot was probed with anti-phospho-AMPK antibody (Thr 172) and the lower blot was probed with anti-pan AMPK. (C) Blots were probed with antibodies against phospho-Akt (Ser 473) or pan-Akt. Immunoblots are representative of three independent experiments with similar results. (D) Data are expressed as phospho-AMPK/pan-AMPK and are given as mean ± SEM from 3 experiments. *p < 0.05 indicates a significant difference, **(p < 0.01), ***(p < 0.001) from the vehicle control group.

GLUT4myc = assay: Cell surface GLUT4myc (GLUT4 translocation), OPD assay; type: cell-based, rat; settings: insulin 100 nM, 15 min; L6-GLUT4myc
Protocol: L6-GLUT4myc myotubes grown in 24-well plates were serum-starved for 4 h and were incubated with either CAME or CAEE (50 μM) for 18 h or insulin (100 nM) for 15 min. Cell-surface GLUT4myc levels were measured by an antibody-coupled colorimetric assay (Niu et al. [2003]) using O-phenylenediamine dihydrochloride (OPD) reagent (1 mL/well) (Sigma-Aldrich, St. Louis, MO), an anti-c-myc antibody (1:200 dilution; Santa Cruz Biotechnology, Santa Cruz, CA) and horseradish peroxidase (HRP)-conjugated goat anti-rabbit IgG at 4 °C (1:1000 dilution; Cell Signaling Technologies, Danvers, MA).
as §1, with “Anti-β-actin antibody was used as a loading control. Representative blots are shown in panel C.” left out

| Molecule | AMPK phosphorylation, fold increase over DMSO (AMPK) | glucose uptake, percent of DMSO control (L6 GLUT4myc myotubes) | 2-deoxyglucose uptake rate (L6 GLUT4myc myotubes; basal (DMSO) 10.1 ± 0.5) | inhibition of G6Pase activity (G6Pase) | GLUT4 translocation, fold relative to DMSO (GLUT4myc) |
| --- | --- | --- | --- | --- | --- |
| NC(=O)c1ncn([C@@H]2O[C@H](CO)[C@@H](O)[C@H]2O)c1N [AICAR, aminoimidazole carboxamide ribonucleotide, reference compound] | 8.5 fold |  |  |  |  |
| insulin: Insulin from bovine pancreas, positive control (100 nM) |  | 175 ± 13% | 17.7 ± 1.2 pmol/min/mg protein | 70.7 ± 2.3% | 1.73 ± 0.18 fold |
